According to ChEMBL document CHEMBL5113558, “Discovery of Potent PROTACs for the Potential Treatment of Leukemia” (ACS Med Chem Lett, 2022):

Target: Protein cereblon/Tyrosine-protein kinase JAK2 (Homo sapiens, UniProt O60674+Q96SW2)
Assay: Protac activity at E3 ubiquitin ligase/JAK2 in human MHH-CALL-4 cells assessed as E3 ubiquitin ligase mediated JAK2 degradation incubated for 32 hrs by immunoblotting analysis
Assay type: cell-based, MHHCALL4

Chain of Protein cereblon/Tyrosine-protein kinase JAK2 (O60674 whole entry): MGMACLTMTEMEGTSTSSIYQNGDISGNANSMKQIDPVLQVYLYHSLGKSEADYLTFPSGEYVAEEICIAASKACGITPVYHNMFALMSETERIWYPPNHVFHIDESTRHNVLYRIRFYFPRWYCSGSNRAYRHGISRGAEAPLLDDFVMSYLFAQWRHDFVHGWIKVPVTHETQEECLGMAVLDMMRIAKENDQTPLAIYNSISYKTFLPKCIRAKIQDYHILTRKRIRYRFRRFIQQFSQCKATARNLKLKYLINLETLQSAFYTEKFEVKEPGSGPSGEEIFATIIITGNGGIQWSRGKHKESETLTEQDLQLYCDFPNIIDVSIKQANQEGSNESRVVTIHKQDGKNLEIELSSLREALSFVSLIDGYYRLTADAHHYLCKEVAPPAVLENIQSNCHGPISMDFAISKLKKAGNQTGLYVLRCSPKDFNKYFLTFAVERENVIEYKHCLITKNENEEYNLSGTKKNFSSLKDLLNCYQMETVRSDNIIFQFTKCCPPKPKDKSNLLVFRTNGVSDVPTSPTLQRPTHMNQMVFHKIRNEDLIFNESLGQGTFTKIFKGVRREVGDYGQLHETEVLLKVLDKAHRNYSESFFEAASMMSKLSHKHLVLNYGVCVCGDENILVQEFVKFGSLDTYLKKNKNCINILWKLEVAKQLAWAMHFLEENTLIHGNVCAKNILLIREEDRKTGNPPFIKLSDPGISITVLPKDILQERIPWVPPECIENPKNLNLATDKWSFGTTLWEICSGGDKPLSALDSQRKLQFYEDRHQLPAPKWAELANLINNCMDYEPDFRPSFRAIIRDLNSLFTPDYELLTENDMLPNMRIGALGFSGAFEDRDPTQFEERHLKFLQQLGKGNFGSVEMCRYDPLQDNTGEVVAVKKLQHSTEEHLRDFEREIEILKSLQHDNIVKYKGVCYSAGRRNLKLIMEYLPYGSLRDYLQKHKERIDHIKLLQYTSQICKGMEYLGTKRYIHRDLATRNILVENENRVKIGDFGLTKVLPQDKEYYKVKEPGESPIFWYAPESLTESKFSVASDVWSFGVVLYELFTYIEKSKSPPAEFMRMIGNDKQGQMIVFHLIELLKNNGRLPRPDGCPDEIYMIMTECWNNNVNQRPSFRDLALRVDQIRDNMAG
Chain of Protein cereblon/Tyrosine-protein kinase JAK2 (Q96SW2 whole entry): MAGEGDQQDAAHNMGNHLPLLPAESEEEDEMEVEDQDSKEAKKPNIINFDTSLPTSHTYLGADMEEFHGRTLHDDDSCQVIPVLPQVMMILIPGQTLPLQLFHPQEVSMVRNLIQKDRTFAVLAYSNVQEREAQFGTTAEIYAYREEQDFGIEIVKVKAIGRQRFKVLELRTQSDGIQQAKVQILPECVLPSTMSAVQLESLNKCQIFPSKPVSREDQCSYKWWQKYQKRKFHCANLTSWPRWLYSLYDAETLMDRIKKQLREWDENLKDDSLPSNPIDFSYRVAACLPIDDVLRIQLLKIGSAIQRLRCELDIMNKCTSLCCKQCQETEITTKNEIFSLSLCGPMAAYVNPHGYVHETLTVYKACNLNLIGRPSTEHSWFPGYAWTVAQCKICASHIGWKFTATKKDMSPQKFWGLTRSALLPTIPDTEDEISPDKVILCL

EC50: 0.5 nM
Structure (SMILES): CCCn1cc(-c2nc(Nc3ccc(C(=O)NCCCCCc4cccc5c4CN(C4CCC(=O)NC4=O)C5=O)cc3)nc3[nH]ccc23)cn1 (stereo unspecified)
